According to patent US20070179121A1, “Method of treating pediatric patients with corticosteroids” (priority 2006, published 2007):

Assay: Skin safety evaluations: signs and symptoms of skin atrophy
Type: in vivo, human (pediatric patients)
Conditions: for Patients who showed new signs of skin atrophy at Week 2 not present at Baseline: 5/62
Text: Patients who met the inclusion/exclusion criteria were randomized to receive topical fluocinonide either qd or bid. Patients/guardians were instructed to apply a thin layer of the study product to all treatable areas once or twice daily for 14 days. If the areas to be treated were hairy, patients/guardians were instructed to part the hair to allow direct contact between the study product and the lesion. Patients/guardians were also instructed not to apply study product to lesions of the face, groin, perianal area, and axillae. At the end of Weeks 1, 2, and 4, patients returned to the study site in order for the investigator to perform designated evaluations, review treatment compliance and concomitant therapy, and to collect information regarding adverse events.
Specific skin safety evaluations were performed at each study visit with regard to all treated lesions by noting the presence or absence of the following 8 signs and symptoms of skin atrophy: telangiectasia, transparency, loss of elasticity, loss of normal skin markings, thinning, striae, pigmentation changes, and bruising.

Which “Number (%) of patients who showed new signs at Week 2 not present at Baseline” value (“Number (%) … at Week 2 not present at Baseline” for short) (Cohort 1 (12-<18), bid) does the source give for `CC(=O)OCC(=O)[C@@]12OC(C)(C)O[C@@H]1C[C@H]1[C@@H]3C[C@H](F)C4=CC(=O)C=C[C@]4(C)[C@@]3(F)[C@@H](O)C[C@@]12C` [Fluocinonide, pregna-1,4-diene-3,20-dione,21-(acetyloxy)-6,9-difluoro-11-hydroxy-16, 17-[(1-methylethylidene)bis(oxy)]-,(6α., 11β,16α)-] here?
Its value is 2 (12.5) Number (%).

What about the “Number (%) … at Week 2 not present at Baseline” value (Cohort 1 (12-<18), qd) of the same compound?
Its value is 2 (13.3) Number (%).

And the “Number (%) … at Week 2 not present at Baseline” value (Cohort 2 (6-<12), bid)?
The value was 1 (6.3) Number (%).

What about the “Number (%) … at Week 2 not present at Baseline” value (Cohort 2 (6-<12), qd) of the same compound?
The value was 0 Number (%).

What about the “Number (%) … at Week 2 not present at Baseline” value (Cohort 3 (2-<6), bid) of the same compound?
The value was 0 Number (%).

And the “Number (%) … at Week 2 not present at Baseline” value (Cohort 3 (2-<6), qd)?
The value was 1 (6.7) Number (%).

What about the “Number (%) … at Week 2 not present at Baseline” value (Cohort 4 (3 months to <2 year), bid) of the same compound?
Its value is 2 (13.3) Number (%).

What about the “Number (%) … at Week 2 not present at Baseline” value (Cohort 4 (3 months to <2 year), qd) of the same compound?
Its value is 2 (12.5) Number (%).

What about the “Patients who showed new signs of skin atrophy at Week 2 not present at Baseline” value (bid treatment group overall) of the same compound?
The value was 8.1%.

What about the “Patients who showed new signs of skin atrophy at Week 2 not present at Baseline” value (qd treatment group overall) of the same compound?
Its value is 8.1%.
